Results published in ChEMBL document CHEMBL4359853, “Antiproliferative activity of (R)-4'-methylklavuzon on hepatocellular carcinoma cells and EpCAM+/CD133+ cancer stem cells via SIRT1 and Exportin-1 (CRM1) inhibition” (Eur J Med Chem, 2019).
Active and inactive are the calls of the source. The rule behind the calls is not given here.

Key:
[1] = target: Exportin-1 (Homo sapiens) (UniProt O14980); experiment: Inhibition of CRM1 in human HuH7 cells assessed as accumulation of RIOK2 in nucleus at 0.1 to 10 uM measured after 6 hrs by DAPI staining based confocal microscopy analysis; type: cell-based
[2] = target: Histone-lysine N-methyltransferase EZH2 (Homo sapiens) (UniProt Q15910); experiment: Activation of EZH2 in human HuH7 cells expressing positive EpCAM/CD133 assessed as upregulation of H3K27me3 expression measured after 4 hrs by Western blot analysis; type: cell-based
HepG2 [3] = experiment: Induction of 3D spheroid death in human HepG2 cells assessed as upregulation of p53 measured after 24 hrs by DAPI staining based fluorescence microscopy analysis assay; type: functional, cell-based
[4] = target: T1, NAD-dependent protein deacetylase sirtuin-1 (Homo sapiens) (UniProt Q96EB6); experiment: Inhibition of human recombinant SIRT1 at 100 uM using FLUOR DE LYS SIRT1, deacetylase as substrate preincubated for 2 mins followed by substrate addition measured after 1 hr in presence of NAD+ by fluorescence assay relative to control
T1 sequence (whole entry): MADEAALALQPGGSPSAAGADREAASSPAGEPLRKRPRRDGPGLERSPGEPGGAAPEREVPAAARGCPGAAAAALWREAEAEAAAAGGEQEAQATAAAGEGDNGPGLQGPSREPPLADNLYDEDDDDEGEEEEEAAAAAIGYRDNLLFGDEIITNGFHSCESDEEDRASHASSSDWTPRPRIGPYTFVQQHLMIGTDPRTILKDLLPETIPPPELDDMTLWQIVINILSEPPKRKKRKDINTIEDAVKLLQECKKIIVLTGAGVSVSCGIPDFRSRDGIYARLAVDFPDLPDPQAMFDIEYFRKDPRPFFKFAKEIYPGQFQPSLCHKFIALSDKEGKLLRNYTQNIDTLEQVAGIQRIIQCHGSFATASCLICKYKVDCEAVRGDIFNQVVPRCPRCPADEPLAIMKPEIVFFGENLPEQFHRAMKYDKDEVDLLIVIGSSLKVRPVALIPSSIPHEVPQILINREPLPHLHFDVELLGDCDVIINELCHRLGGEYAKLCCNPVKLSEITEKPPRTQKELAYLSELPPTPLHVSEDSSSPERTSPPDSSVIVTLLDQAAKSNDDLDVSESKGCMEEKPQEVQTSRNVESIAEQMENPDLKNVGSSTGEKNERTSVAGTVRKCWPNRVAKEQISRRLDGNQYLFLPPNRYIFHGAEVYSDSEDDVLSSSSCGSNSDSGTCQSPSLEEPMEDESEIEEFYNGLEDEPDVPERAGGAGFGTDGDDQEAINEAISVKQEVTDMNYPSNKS

Huh-7 [5] = experiment: Upregulation of p21 expression in human HuH7 cells expressing negative EpCAM/CD133 at 1 to 3 uM measured after 72 hrs by SYBR-green based qPCR analysis; type: functional, cell-based
[6] = target: Exportin-1 (Homo sapiens) (UniProt O14980); experiment: Inhibition of CRM1 in human HepG2 cells assessed as upregulation of p53 by measuring accumulation in nucleus at 0.1 to 10 uM measured after 6 to 24 hrs by DAPI staining based immunofluorescence microscopy analysis; type: cell-based
Homo sapiens [7] = species on record: Homo sapiens; experiment: Inhibition of Sirtuin/HDAC in human HuH7 cells expressing positive EpCAM/CD133 assessed as decrease in cell viability measured after 24 hrs; type: cell-based
Huh-7 [8] = experiment: Cell cycle arrest in human HuH7 negative EpCAM/CD133 cells assessed as increase in accumulation at G1 phase at 10 uM measured after 48 hrs by propidium iodide staining based flow cytometry analysis; type: functional
Homo sapiens [9] = species on record: Homo sapiens; experiment: Inhibition of class 1/2 HDAC in human HuH7 EpCAM/CD133 positive cells nuclear extract at 0.1 to 81 uM after 24 hrs by fluorescence based assay
HepG2 [10] = experiment: Induction of apoptosis in human 3D HepG2 spheroids at 0.1 uM measured after 24 hrs by propidium iodide staining based immunofluorescence microscopy analysis; type: functional, cell-based
HepG2 [11] = experiment: Cytotoxicity against human HepG2 cells assessed as reduction in cell viability measured after 48 hrs by MTT assay; type: functional, cell-based; details: HepG2, 48 h
HepG2 [12] = experiment: Induction of apoptosis in human 3D HepG2 spheroids at 10 uM measured after 24 hrs by propidium iodide staining based immunofluorescence microscopy analysis; type: functional, cell-based
Huh-7 [13] = experiment: Cell cycle arrest in human HuH7 negative EpCAM/CD133 cells assessed as increase in accumulation at G2 phase at 10 uM measured after 48 hrs by propidium iodide staining based flow cytometry analysis; type: functional
[14] = target: Exportin-1 (Homo sapiens) (UniProt O14980); experiment: Inhibition of CRM1 in human HuH7 cells assessed as upregulation of p53 by measuring accumulation in nucleus at 0.1 to 10 uM measured after 24 to 48 hrs by DAPI staining based immunofluorescence microscopy analysis; type: cell-based
Homo sapiens [15] = species on record: Homo sapiens; experiment: Inhibition of Sirtuin/HDAC in human HUH7 negative EpCAM/CD133 cells assessed as decrease in enzymatic activity at 0.10 to 5 uM measured after 24 hrs relative to control
Huh-7 [16] = experiment: Cytotoxicity against human HuH7 cells expressing positive EpCAM/CD133 assessed as reduction in cell viability measured after 48 hrs by MTT assay; type: functional, cell-based; details: Huh-7, 48 h
Huh-7 [17] = experiment: Cytotoxicity against human HuH7 cells negative EpCAM/CD133 assessed as reduction in cell viability measured after 24 hrs by MTT assay; type: functional, cell-based; details: Huh-7, 24 h
Huh-7 [18] = experiment: Upregulation of SIRT1 in human HuH7 cells assessed as fold change at 3 uM measured after 24 hrs by ELISA relative to control; type: functional
HepG2 [19] = experiment: Cytotoxicity against human HepG2 cells assessed as reduction in cell viability measured after 72 hrs by MTT assay; type: functional, cell-based; details: HepG2, 72 h
Huh-7 [20] = experiment: Cytotoxicity against human HuH7 cells negative EpCAM/CD133 assessed as reduction in cell viability measured after 48 to 72 hrs by MTT assay; type: functional, cell-based
Huh-7 [21] = experiment: Cell cycle arrest in human HuH7 cells assessed as increase in cell accumulation at G2 phase at 10 uM measured after 48 hrs by propidium iodide staining based flow cytometry analysis; type: functional
Homo sapiens [22] = species on record: Homo sapiens; experiment: Inhibition of Sirtuin/HDAC in human HuH7 cells expressing positive EpCAM/CD133 assessed as decrease in enzymatic activity at 0.10 to 5 uM measured after 24 hrs relative to control; type: cell-based
Huh-7 [23] = experiment: Induction of apoptosis in human HuH7 cells assessed as loss of spheroid morphology at 62.5 uM measured after 48 hrs by inverted light microscopy based matrigel assay; type: functional, cell-based
Huh-7 [24] = experiment: Induction of apoptosis in human HuH7 cells expressing negative EpCAM/CD133 assessed as change in cell number at 0.1 to 10 uM measured after 48 hrs by 2D microscopic analysis; type: functional, cell-based
Huh-7 [25] = experiment: Induction of apoptosis in human HuH7 cells assessed as change in cell numbers at 0.1 to 10 uM measured after 48 hrs by 2D microscopic analysis; type: functional, cell-based
Huh-7 [26] = experiment: Upregulation of SIRT1 in human HuH7 cells assessed as fold change at 1 uM measured after 24 hrs by ELISA relative to control; type: functional
[27] = target: Exportin-1 (Homo sapiens) (UniProt O14980); experiment: Inhibition of CRM1 in human HuH7 cells assessed as accumulation of RIOK2 in nucleus at 1 and 10 uM measured after 24 hrs by DAPI staining based confocal microscopy analysis; type: cell-based

Exportin-1 (Homo sapiens), sequence (O14980 whole entry): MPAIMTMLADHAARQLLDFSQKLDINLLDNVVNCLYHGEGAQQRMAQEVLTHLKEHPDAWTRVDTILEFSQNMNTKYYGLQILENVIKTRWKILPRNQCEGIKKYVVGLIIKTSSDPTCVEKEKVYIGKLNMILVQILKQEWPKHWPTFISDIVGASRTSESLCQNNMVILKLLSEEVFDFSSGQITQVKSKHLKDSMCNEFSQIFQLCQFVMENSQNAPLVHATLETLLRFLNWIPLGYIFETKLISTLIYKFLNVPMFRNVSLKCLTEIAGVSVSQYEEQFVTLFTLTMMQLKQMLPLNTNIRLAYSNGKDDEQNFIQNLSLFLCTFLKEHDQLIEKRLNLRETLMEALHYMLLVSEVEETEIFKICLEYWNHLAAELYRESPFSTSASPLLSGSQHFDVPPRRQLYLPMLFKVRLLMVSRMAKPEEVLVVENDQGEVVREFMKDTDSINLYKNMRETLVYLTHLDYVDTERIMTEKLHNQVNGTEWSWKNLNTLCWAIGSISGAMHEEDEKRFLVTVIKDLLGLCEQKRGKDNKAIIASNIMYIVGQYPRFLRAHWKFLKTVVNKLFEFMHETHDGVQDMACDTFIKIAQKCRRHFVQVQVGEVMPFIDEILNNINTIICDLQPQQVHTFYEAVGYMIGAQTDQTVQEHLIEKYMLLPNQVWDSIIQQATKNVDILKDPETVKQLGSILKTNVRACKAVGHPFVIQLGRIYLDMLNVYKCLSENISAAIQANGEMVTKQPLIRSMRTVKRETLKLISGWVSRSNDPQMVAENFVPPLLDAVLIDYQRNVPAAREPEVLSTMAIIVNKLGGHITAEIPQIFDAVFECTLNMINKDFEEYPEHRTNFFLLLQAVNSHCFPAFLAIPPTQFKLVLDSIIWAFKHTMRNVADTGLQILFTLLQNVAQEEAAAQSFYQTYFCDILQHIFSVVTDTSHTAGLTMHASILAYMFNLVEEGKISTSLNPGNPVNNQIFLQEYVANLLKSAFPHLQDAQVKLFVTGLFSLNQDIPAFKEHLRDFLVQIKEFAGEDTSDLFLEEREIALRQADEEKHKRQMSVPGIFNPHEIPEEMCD
Histone-lysine N-methyltransferase EZH2 (Homo sapiens), sequence (Q15910 whole entry, looked up): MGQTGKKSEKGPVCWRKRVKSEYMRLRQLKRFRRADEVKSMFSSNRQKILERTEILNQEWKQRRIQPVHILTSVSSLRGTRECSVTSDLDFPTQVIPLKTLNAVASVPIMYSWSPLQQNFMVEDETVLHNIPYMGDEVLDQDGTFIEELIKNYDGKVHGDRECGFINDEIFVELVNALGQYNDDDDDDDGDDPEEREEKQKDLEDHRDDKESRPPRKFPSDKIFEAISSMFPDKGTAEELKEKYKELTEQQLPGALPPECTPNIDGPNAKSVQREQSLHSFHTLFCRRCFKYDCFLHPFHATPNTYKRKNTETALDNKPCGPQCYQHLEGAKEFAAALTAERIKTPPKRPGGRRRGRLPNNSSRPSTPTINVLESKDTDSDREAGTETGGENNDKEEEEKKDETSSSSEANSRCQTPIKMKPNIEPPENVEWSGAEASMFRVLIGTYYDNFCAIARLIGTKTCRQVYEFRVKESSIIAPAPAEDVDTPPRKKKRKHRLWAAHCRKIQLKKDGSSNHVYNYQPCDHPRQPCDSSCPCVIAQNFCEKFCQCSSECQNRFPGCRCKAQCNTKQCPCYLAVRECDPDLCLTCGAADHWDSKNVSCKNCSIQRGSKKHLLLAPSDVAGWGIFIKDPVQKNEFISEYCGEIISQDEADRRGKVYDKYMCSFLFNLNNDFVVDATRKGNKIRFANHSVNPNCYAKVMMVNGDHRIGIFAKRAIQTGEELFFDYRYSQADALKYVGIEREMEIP

inhibition [1]: Active
Activity [2]: Active
inhibition [4]: 50%
inhibition [6]: Active
inhibition (Homo sapiens [9]): inactive
inhibition [14]: Active
Activity (Homo sapiens [15]): Active
inhibition [27]: Active
SMILES: Cc1ccc([C@H]2CC=CC(=O)O2)c2ccccc12
Activity (HepG2 [3]): Dose-dependent effect
Activity (Huh-7 [5]): Active
inhibition (Homo sapiens [7]): Active
Activity (Huh-7 [8]): Active
Activity (HepG2 [10]): inactive
IC50 (HepG2 [11]): 250 nM
Activity (HepG2 [12]): Active
Activity (Huh-7 [13]): Active
IC50 (Huh-7 [16]): 2500 nM
IC50 (Huh-7 [17]): 10000 nM
fold change (FC) (Huh-7 [18]): 3.9
IC50 (HepG2 [19]): 100 nM
IC50 (Huh-7 [20]): 1250 nM
Activity (Huh-7 [21]): Active
inhibition (Homo sapiens [22]): 32 to 39%
Activity (Huh-7 [23]): Active
Activity (Huh-7 [24]): Active
Activity (Huh-7 [25]): Active
fold change (FC) (Huh-7 [26]): 3.3
